In the NIST ThermoML archive (doi:10.1021/je060271a):

Settings: 323.14 K, Liquid, Vibrating tube method

CCCCCC(=O)OCC(COC(=O)CCCCC)(COC(=O)CCCCC)COC(=O)CCCCC [pentaerythritol tetrahexanoate]
Settings | mass density [kg/m3]
4906.2 kPa | 976
4926.8 kPa | 976.1
4951.5 kPa | 976.2
4972.1 kPa | 976.2
4997.4 kPa | 976.1
5018.6 kPa | 976.1
5041 kPa | 976.1
5066.8 kPa | 976.1
5088.6 kPa | 976.2
5114.4 kPa | 976.3
5140.5 kPa | 976.2
5162.3 kPa | 976.3
5184.8 kPa | 976.5
5212 kPa | 976.3
5233.9 kPa | 976.3
5261.4 kPa | 976.3
5289.1 kPa | 976.3
5313.2 kPa | 976.3
5337.7 kPa | 976.4
5363.2 kPa | 976.4
5392.1 kPa | 976.2
5421.2 kPa | 976.4
5445 kPa | 976.5
5469.8 kPa | 976.5
5499.7 kPa | 976.6
5530.1 kPa | 976.4
5555.5 kPa | 976.6
5581.3 kPa | 976.6
5611.7 kPa | 976.5
5635.4 kPa | 976.5
5659 kPa | 976.7
5678.8 kPa | 976.7
5695.8 kPa | 976.6
5715.8 kPa | 976.7
5733 kPa | 976.7
5749.7 kPa | 976.7
5769.6 kPa | 976.7
5786.4 kPa | 976.7
5806.6 kPa | 976.8
5823.9 kPa | 976.7
5844.1 kPa | 976.7
5861.2 kPa | 976.8
5882.2 kPa | 976.8
5899.3 kPa | 976.7
5920.4 kPa | 976.7
5941.5 kPa | 976.8
5959.1 kPa | 976.8
5976.7 kPa | 976.8
5997.6 kPa | 976.8
6015.1 kPa | 976.8
6036.5 kPa | 977
6054.3 kPa | 977
6075.8 kPa | 976.9
6094.3 kPa | 976.9
6115.5 kPa | 976.8
6134 kPa | 976.9
6155.6 kPa | 976.8
6178.1 kPa | 977.1
6196.6 kPa | 977
6361.8 kPa | 977.1
6380.8 kPa | 977.1
6403.6 kPa | 977.1
6426.8 kPa | 977.2
6446.5 kPa | 977.1
6465.6 kPa | 977.2
6489.3 kPa | 977.1
6576.9 kPa | 977.3
6597.3 kPa | 977.2
6621.1 kPa | 977.3
6641.5 kPa | 977.4
6666.6 kPa | 977.2
6690.9 kPa | 977.4
6711.7 kPa | 977.4
6732.6 kPa | 977.4
6757.6 kPa | 977.4
6778.7 kPa | 977.3
6803.9 kPa | 977.3
6825.5 kPa | 977.5
6851.4 kPa | 977.5
6873.7 kPa | 977.5
6899.4 kPa | 977.5
6921.3 kPa | 977.5
6947.4 kPa | 977.5
6973.7 kPa | 977.5
6995.9 kPa | 977.5
7019.4 kPa | 977.6
7043.5 kPa | 977.5
7070.3 kPa | 977.6
7093.1 kPa | 977.7
7120.7 kPa | 977.6
7143.5 kPa | 977.6
7170.6 kPa | 977.7
7194.3 kPa | 977.8
7222.1 kPa | 977.7
7250.4 kPa | 977.7
7273.9 kPa | 977.8
7297.5 kPa | 977.6
7326.7 kPa | 977.8
7351.7 kPa | 977.8
7381.1 kPa | 977.8
7460.9 kPa | 977.8
7573.4 kPa | 977.9
7631.6 kPa | 977.9
7784.6 kPa | 978.1
7812.4 kPa | 978
7839.9 kPa | 978.1
7863.3 kPa | 978.1
8237.7 kPa | 978.4
8267.6 kPa | 978.3
8292.8 kPa | 978.4
8323.1 kPa | 978.5
8348.5 kPa | 978.4
8379 kPa | 978.5
8410 kPa | 978.4
8436.3 kPa | 978.5
8466.9 kPa | 978.5
8498.7 kPa | 978.5
8525.2 kPa | 978.6
8557.3 kPa | 978.5
8584.2 kPa | 978.6
8617 kPa | 978.7
8645.1 kPa | 978.7
8678.7 kPa | 978.7
8712.2 kPa | 978.7
8740.6 kPa | 978.8
8775.3 kPa | 978.7
8805.1 kPa | 978.8
8840.3 kPa | 978.8
8877 kPa | 978.8
8907.8 kPa | 978.7
8944 kPa | 978.8
8971.8 kPa | 978.9
8997.6 kPa | 978.9
9020.2 kPa | 978.9
9142.1 kPa | 979
9164.7 kPa | 979.1
9183.3 kPa | 978.9
9204.3 kPa | 978.9
9226.4 kPa | 978.9
9720.5 kPa | 979.3
9812.4 kPa | 979.5
9820.8 kPa | 979.4
9834.6 kPa | 979.4
9846 kPa | 979.4
9859.9 kPa | 979.4
